Test system: IGROV1 complex spheroids (HUVEC, MSC), viability % test/control
Assay: Anticancer human tumor IGROV1 cell line growth inhibition [GQUAD];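 also: spheroids exposed to compounds for 7 days before readout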;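 as to viability, T/C: 100% = DMSO vehicle control viability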
Settings: for IC50: curve of first compound; for viability, T/C: stronger effect = lower value
How it was run: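 Viability of tumor cells grown as complex spheroids with endothelial and stromal cells, exposed to drug combinations. Top concentration at or near clinical Cmax (else 10 microM), diluted in half-log increments.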

[1] = second compound 0.0316 µM, first compound 0.0316 µM
[2] = second compound 0.0316 µM, first compound 0.1 µM
[3] = second compound 0.0316 µM, first compound 0.316 µM
[4] = second compound 0.0316 µM, first compound 1 µM
[5] = second compound 0.0316 µM, first compound 3.16 µM
[6] = second compound 0.0316 µM, first compound 10 µM
[7] = second compound 0.1 µM, first compound 0.0316 µM
[8] = second compound 0.1 µM, first compound 0.1 µM
[9] = second compound 0.1 µM, first compound 0.316 µM
[10] = second compound 0.1 µM, first compound 1 µM
[11] = second compound 0.1 µM, first compound 3.16 µM
[12] = second compound 0.1 µM, first compound 10 µM
[13] = second compound 0.316 µM, first compound 0.0316 µM
[14] = second compound 0.316 µM, first compound 0.1 µM
[15] = second compound 0.316 µM, first compound 0.316 µM
[16] = second compound 0.316 µM, first compound 1 µM
[17] = second compound 0.316 µM, first compound 3.16 µM
[18] = second compound 0.316 µM, first compound 10 µM
[19] = second compound 1 µM, first compound 0.0316 µM
[20] = second compound 1 µM, first compound 0.1 µM
[21] = second compound 1 µM, first compound 0.316 µM
[22] = second compound 1 µM, first compound 1 µM
[23] = second compound 1 µM, first compound 3.16 µM
[24] = second compound 1 µM, first compound 10 µM
[25] = second compound 3.16 µM, first compound 0.0316 µM
[26] = second compound 3.16 µM, first compound 0.1 µM
[27] = second compound 3.16 µM, first compound 0.316 µM
[28] = second compound 3.16 µM, first compound 1 µM
[29] = second compound 3.16 µM, first compound 3.16 µM
[30] = second compound 3.16 µM, first compound 10 µM
[31] = second compound 10 µM, first compound 0.0316 µM
[32] = second compound 10 µM, first compound 0.1 µM
[33] = second compound 10 µM, first compound 0.316 µM
[34] = second compound 10 µM, first compound 1 µM
[35] = second compound 10 µM, first compound 3.16 µM
[36] = second compound 10 µM, first compound 10 µM

## O=C(NO)c1cnc(N2CCN(S(=O)(=O)c3ccc4ccccc4c3)CC2)nc1 + CN(C)c1ccc(Nc2c3ccc(NC(=O)CCN4CCCC4)cc3nc3cc(NC(=O)CCN4CCCC4)ccc23)cc1
Second compound 0.0316 µM
  IC50: 0.0601 µM
Second compound 0.1 µM
  IC50: 0.0636 µM
Second compound 0.316 µM
  IC50: 0.0556 µM
Second compound 1 µM
  IC50: 0.0414 µM
Second compound 3.16 µM
  IC50: 0.0472 µM
Second compound 10 µM
  IC50: < 0.0316 µM
[1]
  viability, T/C: 69.9%
[2]
  viability, T/C: 34.2%
[3]
  viability, T/C: 4.85%
[4]
  viability, T/C: 0.26%
[5]
  viability, T/C: 0.09%
[6]
  viability, T/C: 0.1%
[7]
  viability, T/C: 74.8%
[8]
  viability, T/C: 33.9%
[9]
  viability, T/C: 4.46%
[10]
  viability, T/C: 0.26%
[11]
  viability, T/C: 0.07%
[12]
  viability, T/C: 0.09%
[13]
  viability, T/C: 66.6%
[14]
  viability, T/C: 32.6%
[15]
  viability, T/C: 5.36%
[16]
  viability, T/C: 0.25%
[17]
  viability, T/C: 0.06%
[18]
  viability, T/C: 0.08%
[19]
  viability, T/C: 58%
[20]
  viability, T/C: 23.6%
[21]
  viability, T/C: 3.31%
[22]
  viability, T/C: 0.23%
[23]
  viability, T/C: 0.06%
[24]
  viability, T/C: 0.08%
[25]
  viability, T/C: 64.3%
[26]
  viability, T/C: 23.4%
[27]
  viability, T/C: 3.69%
[28]
  viability, T/C: 0.27%
[29]
  viability, T/C: 0.07%
[30]
  viability, T/C: 0.08%
[31]
  viability, T/C: 45.4%
[32]
  viability, T/C: 14.4%
[33]
  viability, T/C: 3.73%
[34]
  viability, T/C: 0.21%
[35]
  viability, T/C: 0.12%
[36]
  viability, T/C: 0.11%

## O=c1[nH]cc(F)c(=O)[nH]1 + CN(C)c1ccc(Nc2c3ccc(NC(=O)CCN4CCCC4)cc3nc3cc(NC(=O)CCN4CCCC4)ccc23)cc1
Second compound 0.0316 µM
  IC50: 6.41 µM
Second compound 0.1 µM
  IC50: 6.78 µM
Second compound 0.316 µM
  IC50: 6.4 µM
Second compound 1 µM
  IC50: 5.9 µM
Second compound 3.16 µM
  IC50: 6.18 µM
Second compound 10 µM
  IC50: 3.69 µM
[1]
  viability, T/C: 112%
[2]
  viability, T/C: 96.7%
[3]
  viability, T/C: 104%
[4]
  viability, T/C: 82.3%
[5]
  viability, T/C: 90.6%
[6]
  viability, T/C: 27.7%
[7]
  viability, T/C: 97.6%
[8]
  viability, T/C: 94%
[9]
  viability, T/C: 83.1%
[10]
  viability, T/C: 84.3%
[11]
  viability, T/C: 90.4%
[12]
  viability, T/C: 29.8%
[13]
  viability, T/C: 92.1%
[14]
  viability, T/C: 87.8%
[15]
  viability, T/C: 96.8%
[16]
  viability, T/C: 88.2%
[17]
  viability, T/C: 83%
[18]
  viability, T/C: 29.1%
[19]
  viability, T/C: 69.5%
[20]
  viability, T/C: 72%
[21]
  viability, T/C: 78.8%
[22]
  viability, T/C: 90.8%
[23]
  viability, T/C: 90.4%
[24]
  viability, T/C: 24.2%
[25]
  viability, T/C: 73.3%
[26]
  viability, T/C: 84.8%
[27]
  viability, T/C: 94.1%
[28]
  viability, T/C: 86.2%
[29]
  viability, T/C: 81%
[30]
  viability, T/C: 27.7%
[31]
  viability, T/C: 66.5%
[32]
  viability, T/C: 58%
[33]
  viability, T/C: 52.8%
[34]
  viability, T/C: 70.1%
[35]
  viability, T/C: 55.2%
[36]
  viability, T/C: 16.4%

From PubChem BioAssay AID2060486 (Molecular Pharmacology Branch, DTP, NCI, 2025)
